Data published in PMC12670405, “Second-Generation AURKA-Targeting PROTACs: Structural Optimization toward in Vivo Degradation in Neuroblastoma” (Journal of Medicinal Chemistry, 2025).
Values joined by “and” are separate entries in the source; they are usually repeats but may differ in a detail not shown here. Equal values may be shown once. Read-outs that look alike come from different tables or passages of the source.

Key:
[1] = In vivo pharmacokinetics study; set-up: species or system ICR (CD-1) mice; details: for clearance / bioavailability: male, ICR (CD-1), mouse, plasma; for clearance: iv, 15 mg/kg, read-out: CLIV, mouse (in vivo systemic clearance); for clearance / CLIV, mouse (in vivo systemic clearance): IV 15 mg/kg, noncompartmental analysis; for bioavailability: mice, PO 30 mg/kg vs IV 15 mg/kg
Protocol: Both the in vivo pharmacokinetics and in vivo pharmacodynamics studies were performed by Eurofins Pharmacology Discovery Services. All mice were provided by BioLasco Taiwan (under Charles River Laboratories Licensee). Animals were acclimated for 3 days prior to use and were confirmed to be in good health. All aspects of this work including housing, experimentation, and animal disposal were performed in general accordance with the “Guide for the Care and Use of Laboratory Animals: Eighth Edition” (National Academies Press, Washington, DC. 2011) in a AAALAC-accredited laboratory animal facility. In addition, the animal care and use protocol was reviewed and approved by the IACUC at Eurofins Pharmacology Discovery Services; IN020-08202020 and ON002-07142023.
Male ICR (CD-1) mice, weighing 30 ± 5 g, were given intravenous (IV), intraperitoneal (IP) or oral gavage (PO) administrations of PROTACs at 15 mg/kg (IV and IP) or 30 mg/kg (PO). Dosing volumes used were 5 mL/kg (IV and IP) and 10 mL/kg (PO). The test compounds were dissolved in 5% DMSO/5% Solutol HS15/90% PBS. Serial blood samples were collected at 0.05, 0.167, 0.5, 1, 2, 4, 8, 12 h postadministration (an additional 24h sample was collected for IV-administered mice). Blood samples were collected from three animals at each time point via facial vein (±50 μL) for the first time points and cardiac puncture (±300 μL) for the final time point and stored in tubes coated with lithium heparin. Within 1h of collection, samples were mixed gently and centrifuged at 2500 g for 15 min at 4 °C. Plasma samples were then harvested and kept frozen at −70 °C until further processing. Samples were processed using acetonitrile precipitation and analyzed by LC–MS/MS. Mean plasma concentrations were plotted as a function of time and the fundamental PK parameters were obtained from a noncompartmental analysis (NCA) using WinNonlin. Free drug levels (C p,u) for SK4454 and SK5527 were calculated by factoring in their plasma protein binding (f u) values using the following formula: C p,u = C p * f u.

[2] = target: T1, AURKA (Homo sapiens, UniProt O14965); experiment: AURKA degradation, Simple Western; type: cell-based; set-up: Representative Western blot showing levels of endogenous proteins MDR1, MYCN, AURKA, and CRBN in untreated cell lines; endogenous in cells; host or cells: NGP, IMR-32, SJNB-8, SK-N-BE(2)-C, SK-N-SH, SK-N-AS, SJNB-1, RPE, HEK293T; details: for pDC50: AURKA degradation; for time to robust AURKA depletion: IMR-32, 500 nM; for AURKA degradation potency upon cotreatment with tariquidar (in words): 100 nM, 1 μM tariquidar; for AURKA Degradation 24h @100nM / AURKA Degradation 24h @1000nM / AURKA degradation potency upon cotreatment with tariquidar (in words): 24h;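 as to AURKA Degradation 24h @1000nM: measured in NGP neuroblastoma cells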;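 as to AURKA Degradation 24h @100nM: measured in NGP neuroblastoma cells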
T1 sequence (O14965 1-403): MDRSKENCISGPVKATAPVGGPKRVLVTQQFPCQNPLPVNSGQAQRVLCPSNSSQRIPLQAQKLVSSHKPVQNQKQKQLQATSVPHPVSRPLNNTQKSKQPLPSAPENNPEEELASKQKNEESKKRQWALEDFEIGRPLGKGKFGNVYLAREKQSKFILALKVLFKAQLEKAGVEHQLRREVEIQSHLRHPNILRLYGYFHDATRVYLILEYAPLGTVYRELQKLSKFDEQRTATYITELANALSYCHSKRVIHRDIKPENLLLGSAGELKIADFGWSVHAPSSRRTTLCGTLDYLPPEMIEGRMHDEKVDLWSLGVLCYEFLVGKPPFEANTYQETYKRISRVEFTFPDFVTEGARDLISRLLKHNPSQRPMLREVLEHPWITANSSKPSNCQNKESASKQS
Procedure, shortened: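 Cells treated with compound in medium; lysed in RIPA and analysed by Simple Western (0.8 μg/μL lysate, 0.2 μg/μL for MYCN). Peak areas were normalized to vinculin, giving fold change versus DMSO (mean of 3 experiments); DC50 interpolated from four-parameter dose–response curves.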

[3] = NGP, 24 h treatment, read-out: AURKA DC50
[4] = SK-N-BE(2)-C, read-out: AURKA DC50 24h

| clearance [1] [mL/min/kg] | AURKA Degradation 24h @100nM [2] | AURKA Degradation 24h @1000nM [2] | pDC50 [2] | AURKA DC50 ([2]; NGP, 24 h treatment) | Dmax ([2]; NGP, 24 h treatment) [%] | DC50 ([2]; read-out: AURKA DC50) [nM] | DC50 [2, 3] [nM] | Structure (SMILES) | further results |
| --- | --- | --- | --- | --- | --- | --- | --- | --- | --- |
| 38 | 78 | 84 | 8,11 | single-digit nanomolar range | 87 | 7.8 |  | Cc1cc(Nc2ccc(F)c(CC3(C(=O)N4CC(N5CCN(c6ccc(NC7CCC(=O)NC7=O)cc6F)CC5)C4)CCN(Cc4cccc(Cl)c4F)CC3)n2)n[nH]1 (centres unmarked) [PROTAC 29] |  |
| 35 | 88 | 88 | 8,4 |  | 90 | 4 |  | O=C1CCN(c2ccc(N3CCN(CC4CN(C(=O)[C@]5(Cc6cccc(Nc7nccs7)n6)CC[C@@H](Oc6cccc(Cl)c6F)CC5)C4)CC3)nc2)C(=O)N1 [PROTAC 23] | AURKA degradation activity (in words) ([2]; NGP, 24 h treatment): restored degradation activity |
| 23 | 88 | 92 | 8,2 |  | 92 | 6.4 | 6 | O=C1CCC(Nc2ccc(N3CCN(C4CN(C(=O)[C@]5(Cc6cccc(Nc7nccs7)n6)CC[C@@H](Oc6cccc(Cl)c6F)CC5)C4)CC3)c(F)c2)C(=O)N1 (some centres unmarked) [PROTAC 18] |  |
| 22 | 88 | 93 | 8,23 |  | 94 | 5.8 |  | O=C1CCN(c2ccc(N3CCN(CC4CCN(C(=O)[C@]5(Cc6cccc(Nc7nccs7)n6)CC[C@@H](Oc6cccc(Cl)c6F)CC5)CC4)CC3)nc2)C(=O)N1 [PROTAC 24] | AURKA degradation activity (in words) ([2]; NGP, 24 h treatment): restored degradation activity |
| 18 | 88 | 92 | 8,09 | single-digit nanomolar range | 90 | 8.1 | < 25 | Cc1cc(Nc2ccc(F)c(CC3(C(=O)N4CCC(CN5CCN(c6ccc(N7CCC(=O)NC7=O)cn6)CC5)CC4)CCN(Cc4cccc(Cl)c4F)CC3)n2)n[nH]1 [SK4454] | CLIV, mouse (in vivo systemic clearance) ([1]; listed as PROTAC 32, 15 mg/kg): 18.1 mL/min/kg; bioavailability [1]: 7%; time to robust AURKA depletion [2]: ≤ 1 h; DC50 ([2]; SJNB-8, read-out: AURKA DC50 24h): < 25 nM and 23 nM; AURKA degradation potency upon cotreatment with tariquidar (in words) ([2]; SK-N-BE(2)-C): significantly enhanced; DC50 [2, 4]: 270 nM |
| 114 | 86 |  | 8,41 |  | 89 | 3.9 |  | O=C1CCC(N2C(=O)c3cccc(OCCOCCOCCOCCNC(=O)[C@]4(Cc5cccc(Nc6nccs6)n5)CC[C@@H](Oc5cccc(Cl)c5F)CC4)c3C2=O)C(=O)N1 (some centres unmarked) [SK2188, reference compound] |  |

| Structure (SMILES) | clearance [1] [mL/min/kg] | AURKA Degradation 24h @100nM [2] | AURKA Degradation 24h @1000nM [2] | pDC50 [2] | AURKA DC50 ([2]; NGP, 24 h treatment) | Dmax ([2]; NGP, 24 h treatment) [%] | DC50 ([2]; read-out: AURKA DC50) [nM] | DC50 [2, 3] [nM] | further results |
| --- | --- | --- | --- | --- | --- | --- | --- | --- | --- |
| Cc1cc(Nc2ccc(F)c(CC3(C(=O)N4CCC(F)(CN5CCN(c6ccc(N7CCC(=O)NC7=O)cn6)CC5)CC4)CCN(Cc4cccc(Cl)c4F)CC3)n2)n[nH]1 [SK5527] | 12 | 88 | 93 | 8,68 | single-digit nanomolar range | 89 | 2.1 | < 25 | CLIV, mouse (in vivo systemic clearance) ([1]; listed as PROTAC 33, 15 mg/kg): 12.2 mL/min/kg; bioavailability [1]: 11%; DC50 ([2]; HEK293T, read-out: AURKA DC50 24h): 17 nM; time to robust AURKA depletion [2]: ≤ 1 h; DC50 ([2]; RPE, read-out: AURKA DC50 24h): 15 nM; DC50 ([2]; SJNB-1, read-out: AURKA DC50 24h): 56 nM; DC50 ([2]; SK-N-AS, read-out: AURKA DC50 24h): 30 nM; AURKA degradation potency upon cotreatment with tariquidar (in words) ([2]; SK-N-BE(2)-C): significantly enhanced; DC50 [2, 4]: 73 nM; DC50 ([2]; SK-N-SH, read-out: AURKA DC50 24h): 23 nM |
